# From patent US11905272B1, “3-(2-(4-methoxypyridin-3-yl)-4,5-diphenyl-1H-imidazol-1-yl)-N,N-dimethylpropan-1-amine as an anti-cancer compound” (KING FAISAL UNIVERSITY, priority 2023, dated 2024)
# Legend:
# [1] = tested on: human prostate cancer cells (PC3); experiment: Assessment of cytotoxicity by SRB assay (PC3); assay type: cell-based; conditions: 0.01 μM to 100 μM, 72 h
# Procedure: (§1) The human prostate cancer cells (PC3) and human osteosarcoma cells (MG-63) were obtained from Nawah Scientific Inc. (Mokatam, Cairo, Egypt) and cultured in DMEM (Dulbecco's modified eagle's medium), Gibco, USA, supplemented with fetal bovine serum (FBS) at a concentration of 10% and 100 U/mL of penicillin and streptomycin (PS). The Cells were incubated at 37° C. in a humidified environment that contained 5% CO2.
# (§2) Cells were seeded in 96-well plates as aliquots of 100 μL cell suspension and incubated in a complete media for 24 h. Afterward, cells were treated with 3-(2-(4-methoxypyridin-3-yl)-4,5-diphenyl-1H-imidazol-1-yl)-N,N-dimethylpropan-1-amine at diverse concentrations ranging from 0.01 μM to 100 μM for 72 h. Then, cells were fixed at 4° C. for one hour with 150 μL of 10% trichloroacetic acid (TCA). After washing the cells five times with distilled water, 70 μL of sulforhodamine (SRB) solution (0.4% w/v) was added and incubated for 10 min at room temperature in a dark place. […] Then, 150 μL of Tris pH 10.5 (10 mM) was added, and the absorbance was measured at 540 nm using a BMG LABTECH®-FLUOstar Omega microplate reader (Ortenberg, Germany). Half maximal inhibitory concentrations (IC50) values were calculated for each experiment using GraphPad Prism 6 software. […]
# (§3) The inhibition was calculated using the following equation: Inhibition %=100−Average Viability
# [2] = tested on: human osteosarcoma cells (MG-63); experiment: Assessment of cytotoxicity by SRB assay (MG-63); assay type: cell-based; conditions: 0.01 μM to 100 μM, 72 h
# Procedure: as §1, §2, §3
structure (smiles),measurement,setting,value
"COc1ccncc1-c1nc(-c2ccccc2)c(-c2ccccc2)n1CCCN(C)C [3-(2-(4-methoxypyridin-3-yl)-4,5-diphenyl-1H-imidazol-1-yl)-N,N-dimethylpropan-1-amine]",antiproliferative activity against cancer cells (PC3),[1],excellent antiproliferative activities
same,antiproliferative activity against osteosarcoma (MG-63) cells,[2],excellent antiproliferative activities
same,melting point,,128 to 131 °C
